These results are taken from paper PMC7215373, “Design, Synthesis, and Anticancer Evaluation of Novel Indole Derivatives of Ursolic Acid as Potential Topoisomerase II Inhibitors” (International Journal of Molecular Sciences, 2020).

Data set [1] concerns SMMC-7721 cells. Also on record: method as in PMID 25537271. The settings on record: earlier in vitro cytotoxic assay; read-out: IC50 against SMMC-7721; cited from earlier work.
Data set [2] relates to SMMC-7721 cells. Description: MTT cytotoxicity assay, SMMC-7721. In kind it is cell-based, human. To be noted: Homo sapiens, SMMC-7721, 48 h, 48 h exposure. As to the method: (§1) The in vitro cytotoxic activities of synthesized compounds were evaluated against two human hepatocarcinoma cell lines (SMMC-7721 and HepG2) and the human normal hepatocyte cell line (LO2) via MTT assay. All tested compounds were dissolved in DMSO and the stock solutions were diluted by DMEM medium before treatment of the cultured cells. […] Cell lines were obtained from American Tissue Culture Collection (ATCC). Briefly, different tumor cells were grown in DMEM medium supplemented with 10% fetal bovine serum, penicillin (100 U/mL), and streptomycin (50 μg/mL). Cells were harvested at log phase of growth and seeded in 96-well plates (100 μL/well at a density of 2 × 10^5 cells/mL). After 24 h incubation at 37 °C and 5% CO2 to allow cell attachment, cultures were exposed to various concentrations of the isolated compounds for 48 h. Finally, MTT solution (2.5 mg/mL in PBS) was added (40 μL/well). Plates were further incubated for 4 h at 37 °C, and the formazan crystals formed were dissolved by adding 150 μL/well of DMSO. Absorption at 570 nm was measured with an ELISA plate reader. […] Doxorubicin, camptothecin, and etoposide (VP-16) were co-assayed as positive controls.

The target of data set [3] is T1, DNA topoisomerase I (Bos taurus, UniProt F1MN93).
T1 construct: purchased TaKaRa, Kyoto, Japan
T1 sequence (F1MN93 1-767): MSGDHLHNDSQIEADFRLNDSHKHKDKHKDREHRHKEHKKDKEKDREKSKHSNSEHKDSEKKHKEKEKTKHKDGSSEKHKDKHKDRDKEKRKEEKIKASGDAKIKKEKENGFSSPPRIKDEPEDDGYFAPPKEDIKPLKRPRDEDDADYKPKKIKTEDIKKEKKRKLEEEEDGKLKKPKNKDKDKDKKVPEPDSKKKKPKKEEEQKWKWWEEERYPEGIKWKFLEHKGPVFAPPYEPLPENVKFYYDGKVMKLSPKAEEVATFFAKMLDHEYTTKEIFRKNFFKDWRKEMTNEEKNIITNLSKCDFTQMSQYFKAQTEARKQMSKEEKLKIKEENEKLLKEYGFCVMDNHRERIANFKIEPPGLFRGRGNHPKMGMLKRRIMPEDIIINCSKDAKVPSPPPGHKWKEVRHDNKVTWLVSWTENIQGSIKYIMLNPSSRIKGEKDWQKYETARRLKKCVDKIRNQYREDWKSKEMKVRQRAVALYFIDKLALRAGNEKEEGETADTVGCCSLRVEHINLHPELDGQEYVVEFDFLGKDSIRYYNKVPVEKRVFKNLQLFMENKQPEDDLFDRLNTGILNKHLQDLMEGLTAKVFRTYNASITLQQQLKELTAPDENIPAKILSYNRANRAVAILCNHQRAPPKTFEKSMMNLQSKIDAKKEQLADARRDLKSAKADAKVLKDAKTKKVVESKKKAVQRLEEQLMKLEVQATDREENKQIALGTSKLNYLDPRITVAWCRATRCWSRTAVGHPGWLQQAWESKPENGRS
Description: Topoisomerase I relaxation assay (supercoiled pBR322). In kind it is biochemical. To be noted: for inhibition at 20 µM: 20 μM compound, read-out: Topo I Inhibition (%) 20 μM; for inhibition at 100 µM: 100 μM compound, read-out: Topo I Inhibition (%) 100 μM. As to the method:
The effect of the tested compounds on Topo I and II activities were evaluated by Topo I/II relaxation assays. The reaction products, relaxed DNA could be distinguished from supercoiled DNA by gel electrophoresis and visualized using gel imaging system. The activity of DNA topoisomerase I (TaKaRa, Kyoto, Japan) was determined by measuring the relaxation of supercoiled DNA pBR322 [32]. Camptothecin was used as a positive control. The reaction mixture was prepared according to the manufacture's protocol, and incubated at 37 °C for 30 min. The reactions were terminated by adding dye solution containing 1% SDS, 0.02% bromophenol blue and 50% glycerol. The mixtures were applied to 1% agarose gel and subjected to electrophoresis for 1 h, in 1× TAE buffer (40 mM Tris-acetate, 1 mM EDTA). Gels were stained for 30 min in 60 mL 1× TAE buffer with ethidium bromide (0.5 μg/mL). DNA bands were visualized by transillumination with UV light and then photographed by a Gel Doc XR+ System (BIO-RAD, Hercules, CA, USA).

The subject of data set [4] is LO2 cells. Description: MTT cytotoxicity assay, normal hepatocyte LO2. To be noted: Homo sapiens, L02, 48 h exposure, normal hepatocyte cell line. It is filed as cell-based. As to the method:
as §1
(In general: Formazan colour is commonly taken as a measure of viable cells.)

In data set [5] the test system is HepG2 cells. Further details: method as in PMID 25537271. To be noted: earlier in vitro cytotoxic assay; read-out: IC50 against HepG2; cited from earlier work.
Data set [6] deals with T2, Human Topoisomerase IIα (Homo sapiens, UniProt P11388).
T2 construct: purchased USB, Affymetrix, Waltham, MA, USA
T2 sequence (P11388 whole entry): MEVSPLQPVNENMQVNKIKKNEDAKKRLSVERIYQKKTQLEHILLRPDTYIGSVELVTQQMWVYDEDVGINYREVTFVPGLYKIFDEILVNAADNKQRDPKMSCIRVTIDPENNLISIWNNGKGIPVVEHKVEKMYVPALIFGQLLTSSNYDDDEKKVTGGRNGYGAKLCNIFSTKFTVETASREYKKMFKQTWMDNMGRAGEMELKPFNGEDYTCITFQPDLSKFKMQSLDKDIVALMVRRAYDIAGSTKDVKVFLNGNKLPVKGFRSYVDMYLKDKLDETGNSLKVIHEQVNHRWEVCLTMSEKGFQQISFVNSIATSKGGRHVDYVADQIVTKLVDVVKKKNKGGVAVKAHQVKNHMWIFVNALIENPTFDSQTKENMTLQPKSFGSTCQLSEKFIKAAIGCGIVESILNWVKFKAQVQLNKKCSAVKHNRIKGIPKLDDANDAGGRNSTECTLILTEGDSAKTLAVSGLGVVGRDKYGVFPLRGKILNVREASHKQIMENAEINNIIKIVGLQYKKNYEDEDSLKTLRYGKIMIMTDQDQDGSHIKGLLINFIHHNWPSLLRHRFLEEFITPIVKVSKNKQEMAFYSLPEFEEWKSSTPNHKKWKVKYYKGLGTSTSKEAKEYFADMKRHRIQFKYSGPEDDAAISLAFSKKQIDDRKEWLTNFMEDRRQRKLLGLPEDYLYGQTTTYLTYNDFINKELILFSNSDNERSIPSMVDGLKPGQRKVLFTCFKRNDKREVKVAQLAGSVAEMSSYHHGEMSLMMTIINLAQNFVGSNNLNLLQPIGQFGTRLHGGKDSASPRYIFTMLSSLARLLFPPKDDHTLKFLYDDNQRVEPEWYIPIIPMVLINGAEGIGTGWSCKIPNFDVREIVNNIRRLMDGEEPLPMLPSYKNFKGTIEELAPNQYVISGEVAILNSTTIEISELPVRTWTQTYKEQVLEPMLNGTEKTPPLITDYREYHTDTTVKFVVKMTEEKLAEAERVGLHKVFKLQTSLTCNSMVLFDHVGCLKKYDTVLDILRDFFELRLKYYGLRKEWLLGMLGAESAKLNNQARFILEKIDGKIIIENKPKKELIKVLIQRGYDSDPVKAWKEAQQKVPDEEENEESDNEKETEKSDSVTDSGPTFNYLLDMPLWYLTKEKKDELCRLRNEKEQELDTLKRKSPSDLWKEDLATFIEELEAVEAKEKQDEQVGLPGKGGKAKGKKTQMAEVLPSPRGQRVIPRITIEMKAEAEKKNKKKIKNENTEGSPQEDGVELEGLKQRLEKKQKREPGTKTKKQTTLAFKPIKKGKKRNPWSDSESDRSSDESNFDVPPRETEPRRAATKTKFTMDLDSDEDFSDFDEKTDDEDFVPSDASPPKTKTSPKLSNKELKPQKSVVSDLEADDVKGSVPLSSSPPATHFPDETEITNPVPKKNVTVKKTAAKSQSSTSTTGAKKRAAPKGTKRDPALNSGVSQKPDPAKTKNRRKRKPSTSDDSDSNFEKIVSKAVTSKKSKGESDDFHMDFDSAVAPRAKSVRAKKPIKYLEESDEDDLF
Description: Topoisomerase II relaxation assay (supercoiled pBR322). In kind it is biochemical. The settings on record: for inhibition at 20 µM: 20 μM compound, read-out: Topo II Inhibition (%) 20 μM; for inhibition at 100 µM: 100 μM compound, read-out: Topo II Inhibition (%) 100 μM. As to the method:
The effect of the tested compounds on Topo I and II activities were evaluated by Topo I/II relaxation assays. The reaction products, relaxed DNA could be distinguished from supercoiled DNA by gel electrophoresis and visualized using gel imaging system. Human Topoisomerase IIα activity was detected by measuring the relaxation of supercoiled pBR322 plasmid DNA [22]. […] For inhibition studies, the compounds were pre-incubated with human Topo IIα and DNA for 15 min. Compounds were used at the appropriate concentrations by dissolving in 2% (v/v) DMSO. DMSO didn't show detrimental effect on the enzyme activity at concentration up to 2% (v/v). Reaction mixture was incubated at 37 °C for 30 min and stopped by the addition of 7 mM EDTA. Reaction product was mixed with DNA loading dye and electrophoresed on 1% TAE-Agarose. The gel was stained with ethidium bromide (0.5 μg/mL) for 30 min, destained twice in 1× TAE buffer, and then visualized using a BIO-RAD Gel Doc XR+ System. Etoposide (VP-16) was co-assayed as a positive control.

For data set [7], the system named is HepG2 cells. Description: MTT cytotoxicity assay, HepG2. In kind it is cell-based, human. The settings on record: Homo sapiens, HepG2, 48 h, 48 h exposure. On the procedure: as §1

SMILES strings stand for the structures. Read-outs that look alike come from different tables or passages of the source. Where only a bound is given, the exact number is not on record here.

Consider `Cc1ccc2[nH]c3c(c2c1)C[C@@]1(C)C(CC[C@]2(C)C1CC=C1C4[C@@H](C)[C@H](C)CC[C@]4(C(=O)NCCCN(C)C)CC[C@]12C)C3(C)C` (some centres unmarked) [5b, N-(3-(Dimethylamino)propyl)-5′-methyl-1′H-ursa-2,12-dieno[3,2-b]indol-28-carboxamide], for which the concentration for half-maximal inhibition (IC50) – broadly, the concentration that inhibits the measured activity by half – is approximately 1 µM in data set [1]; 1.08 ± 0.22 µM in data set [2]; 20.7 ± 1.73 µM in data set [4]; approximately 1 µM in data set [5]; 1.26 ± 0.17 µM in data set [7]. In addition, the inhibition – broadly, the change of the read-out against control, counted positive when it falls – at 20 µM in data set [3] turned out to be 9%; in data set [6], 38.2%. Besides, the results for the inhibition at 100 µM in data set [3] and in data set [6] were 34.2% and 72.5%, respectively. The “inhibitory activity to Topo I” value in data set [3] (preliminary screening) is reported as “considerable inhibitory activity”. In addition, the “inhibitory activity to Topo IIα” value in data set [6] (preliminary screening) is listed as “considerable inhibitory activity”.
Take `Cc1ccc2[nH]c3c(c2c1)C[C@@]1(C)C(CC[C@]2(C)C1CC=C1C4[C@@H](C)[C@H](C)CC[C@]4(C(=O)NCCNC(=O)[C@]45CC[C@@H](C)[C@H](C)C4C4=CCC6[C@@]7(C)Cc8c([nH]c9ccc(C)cc89)C(C)(C)C7CC[C@@]6(C)[C@]4(C)CC5)CC[C@]12C)C3(C)C` (some centres unmarked) [7a, N,N′-(ethane-1,2-diyl)-bis(5′-methyl-1′H-ursa-2,12-dieno[3,2-b]indol-28-carboxamide)]: the melting point (usually the temperature of the solid-liquid transition) lay within 301 to 303 °C. Also, in data set [2], the IC50 was more than 50 µM. The inhibition at 100 µM in data set [3] is 0%. This compound also displayed an IC50 in data set [4] of more than 50 µM. In data set [6], the inhibition at 20 µM was found to be 9.7% and the inhibition at 100 µM was determined as 23.8%. The same compound showed an IC50 in data set [7] of more than 50 µM.
Regarding `Cc1ccc2[nH]c3c(c2c1)C[C@@]1(C)C(CC[C@]2(C)C1CC=C1C4[C@@H](C)[C@H](C)CC[C@]4(C(=O)NCCN)CC[C@]12C)C3(C)C` (some centres unmarked) [4a, N-(2-Aminoethyl)-5′-methyl-1′H-ursa-2,12-dieno[3,2-b]indol-28-carboxamide], the melting point was 228 to 230 °C. For the same compound, in data set [2], the IC50 was 3.5 ± 0.61 µM. In data set [3], the inhibition at 20 µM is 5.6% and the inhibition at 100 µM came out at 15.1%. Also, the IC50 in data set [4] was 29.6 ± 2.12 µM. Besides, in data set [6], the inhibition at 20 µM came out at 25.9% and the inhibition at 100 µM stood at 69.7%. The compound also showed an IC50 in data set [7] of 3.31 ± 0.35 µM.
